Laboratory results published in US20260265246A1 (ICAHN SCHOOL OF MEDICINE AT MOUNT SINAI, priority 2021, published 2026).
Where two headings read alike, the source gives them in different places.

Assays:
5HT2A receptor [1] = target: T1, 5HT2A receptor (Homo sapiens, UniProt P28223); assay: biochemical; format: binding; parameters: expressed in transfected cells; crude membranes
5HT2A receptor [2] = target: T1, 5HT2A receptor; assay: cell-based; parameters: expressed in transfected cells; host or cells: HEK293T cells, transient co-transfection; details: for Emax: HEK-293T
5HT2A receptor [3] = target: T1, 5HT2A receptor; assay: cell-based; parameters: expressed in transfected cells; host or cells: HEK293T cells, transient co-transfection; details: for Emax: HEK-293T; remark: listed apart in the source
[4] = 5HT2A Ki (nM), secondary radioligand binding, Ki from IC50 by Cheng-Prusoff
[5] = BRET2 Gαq dissociation, HEK293T cells, read-out: 5HT2A Gq EC50
[6] = BRET2 Gαq dissociation, HEK293T cells, normalized to 5-HT, read-out: 5HT2A Gq Emax (%)
[7] = 5HT2A β-Arr EC50 (nM), BRET1 beta-arrestin2 recruitment, HEK293T cells
[8] = BRET1 beta-arrestin2 recruitment, HEK293T cells, normalized to 5-HT, read-out: 5HT2A β-Arr Emax (%)
[9] = 5HT2A Ki (nM), secondary binding assay, Cheng-Prusoff
[10] = 5HTA Gq EC50 (nM), BRET2 Gαq dissociation, HEK293T
[11] = BRET2 Gαq dissociation, HEK293T, normalized to 5-HT, read-out: 5HTA Gq Emax (%)
[12] = 5HT2A β-Arr EC50 (nM), BRET1 beta-arrestin2 recruitment, HEK293T
[13] = BRET1 beta-arrestin2 recruitment, HEK293T, normalized to 5-HT, read-out: 5HT2A β-Arr Emax (%)
[14] = 5HT2A Gq EC50 (nM), BRET2 Gαq dissociation, HEK293T cells
[15] = secondary radioligand binding, Ki from IC50 by Cheng-Prusoff, read-out: 5HT2A Ki
[16] = BRET1 beta-arrestin2 recruitment, HEK293T cells, read-out: 5HT2A β-Arr EC50
[17] = BRET2 Gαq dissociation, HEK293T, read-out: 5HTA Gq EC50
[18] = BRET1 beta-arrestin2 recruitment, HEK293T, read-out: 5HT2A β-Arr EC50
[19] = BRET2 Gαq dissociation, HEK293T, normalized to 5-HT
[20] = BRET1 beta-arrestin2 recruitment, HEK293T, normalized to 5-HT

T1 sequence (P28223 whole entry): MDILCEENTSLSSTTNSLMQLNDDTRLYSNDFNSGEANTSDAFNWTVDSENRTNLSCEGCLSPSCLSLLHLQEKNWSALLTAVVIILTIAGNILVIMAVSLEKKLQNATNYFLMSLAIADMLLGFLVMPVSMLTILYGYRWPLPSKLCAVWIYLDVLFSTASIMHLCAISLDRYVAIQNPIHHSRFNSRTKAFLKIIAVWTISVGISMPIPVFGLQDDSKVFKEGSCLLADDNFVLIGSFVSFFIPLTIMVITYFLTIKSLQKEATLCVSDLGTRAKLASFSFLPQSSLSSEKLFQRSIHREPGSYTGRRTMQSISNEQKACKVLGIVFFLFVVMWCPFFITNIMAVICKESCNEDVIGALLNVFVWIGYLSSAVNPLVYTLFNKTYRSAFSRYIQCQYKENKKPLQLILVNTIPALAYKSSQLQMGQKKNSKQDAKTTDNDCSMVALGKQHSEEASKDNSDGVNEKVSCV

SMILES | Ki (5HT2A receptor [1]; [4]) | EC50 (5HT2A receptor [2]; [5]) | Emax (5HT2A receptor [2]; [6]) | EC50 (5HT2A receptor [3]; [7]) | Emax (5HT2A receptor [3]; [8]) | Ki (5HT2A receptor [1]; [9]) | Emax (5HT2A receptor [2]; [11]) | EC50 (5HT2A receptor [3]; [12]) | Emax (5HT2A receptor [3]; [13]) | other results
C=CCN1CCC=C(c2n[nH]c3c(Cl)cccc23)C1 [Example 124, 3-(1-allyl-1,2,5,6-tetrahydropyridin-3-yl)-7-chloro-1H-indazole] | 159 nM | 49.6 nM | 64.9% | 1010 nM | 35.3% | – | – | – | – | –
CCN1CCC=C(c2nn(CC)c3c(Cl)cccc23)C1 [Example 146, 7-chloro-1-ethyl-3-(1-ethyl-1,2,5,6-tetrahydropyridin-3-yl)-1H-indazole] | – | – | – | – | – | 171 nM | 54.5% | 1530 nM | 56.7% | EC50 (5HT2A receptor [2]; [10]): 51.7 nM
Fc1cnc2[nH]cc(C3=CCCNC3)c2c1 [Example 120, 5-fluoro-3-(1,2,5,6-tetrahydropyridin-3-yl)-1H-pyrrolo[2,3-b]pyridine] | 53.6 nM | – | 100% | 67.4 nM | 60.4% | – | – | – | – | EC50 (5HT2A receptor [2]; [14]): 21.5 nM
CN1CCC=C(c2c[nH]c3nc(F)ccc23)C1 [Example 134, 6-fluoro-3-(1-methyl-1,2,5,6-tetrahydropyridin-3-yl)-1H-pyrrolo[2,3-b]pyridine] | – | – | – | – | – | 284 nM | 87.4% | 1050 nM | 51.1% | EC50 (5HT2A receptor [2]; [10]): 140 nM
CN1CCC=C(c2c[nH]c3c(Cl)cccc23)C1 [Example 44, 7-chloro-3-(1-methyl-1,2,5,6-tetrahydropyridin-3-yl)-1H-indole] | – | 18.9 nM | 86.6% | – | 37.6% | – | – | – | – | Ki (5HT2A receptor [1]; [15]): 76.3 nM; EC50 (5HT2A receptor [3]; [16]): 78.8 nM
CCc1cccc2c(C3=CCCNC3)c[nH]c12 [Example 50, 7-ethyl-3-(1,2,5,6-tetrahydropyridin-3-yl)-1H-indole] | 244 nM | 4.7 nM | 92.6% | – | 79.1% | – | – | – | – | EC50 (5HT2A receptor [3]; [16]): 67 nM
Cc1cccc2c(C3=CCCNC3)c[nH]c12 [Example 41, 7-methyl-3-(1,2,5,6-tetrahydropyridin-3-yl)-1H-indole] | 1380 nM | – | 92.6% | 1410 nM | 83.2% | – | – | – | – | EC50 (5HT2A receptor [2]; [14]): 234 nM
CCCN1CCC=C(c2c[nH]c3c(C)cc(F)cc23)C1 [Example 161, 5-fluoro-7-methyl-3-(1-propyl-1,2,5,6-tetrahydropyridin-3-yl)-1H-indole] | – | – | – | – | – | 488 nM | 93.2% | 311 nM | 35.2% | EC50 (5HT2A receptor [2]; [17]): 84.1 nM
Fc1cc(Cl)c2[nH]nc(C3=CCCNC3)c2c1 [Example 129, 7-chloro-5-fluoro-3-(1,2,5,6-tetrahydropyridin-3-yl)-1H-indazole] | – | – | – | – | – | 162 nM | 88.8% | – | 95% | EC50 (5HT2A receptor [2]; [17]): 3.1 nM; EC50 (5HT2A receptor [3]; [18]): 20.1 nM
Clc1cccc2c(C3=CCNC3)n[nH]c12 [Example 206, 7-chloro-3-(2,5-dihydro-1H-pyrrol-3-yl)-1H-indazole] | – | – | – | – | – | 272 nM | 117% | – | 108% | EC50 (5HT2A receptor [2]; [17]): 14.4 nM; EC50 (5HT2A receptor [3]; [18]): 44.8 nM
Cc1ccnc2c(C3=CCCN(C)C3)c[nH]c12 [Example 137, 7-methyl-3-(1-methyl-1,2,5,6-tetrahydropyridin-3-yl)-1H-pyrrolo[3,2-b]pyridine] | – | – | – | – | – | 531 nM | 74.4% | 372 nM | 44.6% | EC50 (5HT2A receptor [2]; [10]): 57.6 nM
CN1CCC=C(c2c[nH]c3ncc(F)cc23)C1 [Example 118, 5-fluoro-3-(1-methyl-1,2,5,6-tetrahydropyridin-3-yl)-1H-pyrrolo[2,3-b]pyridine] | 80.3 nM | – | 109% | 49.4 nM | 56.7% | – | – | – | – | EC50 (5HT2A receptor [2]; [14]): 31.6 nM
Clc1cccc2c(C3=CCCNC3)n[nH]c12 [Example 89, 7-chloro-3-(1,2,5,6-tetrahydropyridin-3-yl)-1H-indazole] | – | 11.4 nM | 93.7% | – | 85.1% | – | – | – | – | Ki (5HT2A receptor [1]; [15]): 85.2 nM; EC50 (5HT2A receptor [3]; [16]): 83.5 nM
CCc1cccc2c(C3=CCCN(C)C3)n[nH]c12 [Example 122, 7-ethyl-3-(1-methyl-1,2,5,6-tetrahydropyridin-3-yl)-1H-indazole] | 816 nM | – | 102% | 247 nM | 42.9% | – | – | – | – | EC50 (5HT2A receptor [2]; [14]): 151 nM
Cc1cccc2c(C34CCNCC3C4)n[nH]c12 (stereo not drawn) [Example 226, 3-(3-azabicyclo[4.1.0]heptan-6-yl)-7-methyl-1H-indazole] | – | – | – | – | – | 4630 nM | 91% | 2000 nM | 52.1% | EC50 (5HT2A receptor [2]; [10]): 1350 nM
Clc1cccc2c(C34CNCC3C4)n[nH]c12 (single isomer, unassigned) [Example 273, 3-(3-azabicyclo[3.1.0]hexan-1-yl)-7-chloro-1H-indazole] | – | – | – | – | – | 6300 nM | – | 1300 nM | – | EC50 (5HT2A receptor [2]; [10]): 226 nM; 5HTA Gq Emax (%) (5HT2A receptor [2]; [19]): 81.0%; 5HT2A β-Arr Emax (%) (5HT2A receptor [3]; [20]): 20.73%
Clc1ccc2[nH]nc(C3=CCCNC3)c2c1 [Example 84, 5-chloro-3-(1,2,5,6-tetrahydropyridin-3-yl)-1H-indazole] | – | 3.4 nM | 94.8% | – | 97% | – | – | – | – | Ki (5HT2A receptor [1]; [15]): 25.3 nM; EC50 (5HT2A receptor [3]; [16]): 52.4 nM
Fc1ccc2[nH]nc(C3=CCCNC3)c2c1 [Example 85, 5-fluoro-3-(1,2,5,6-tetrahydropyridin-3-yl)-1H-indazole] | – | 2.8 nM | 88.3% | – | 96% | – | – | – | – | Ki (5HT2A receptor [1]; [15]): 33.4 nM; EC50 (5HT2A receptor [3]; [16]): 68.6 nM
CCN1CCC=C(c2c[nH]c3c(Cl)cccc23)C1 [Example 126, 7-chloro-3-(1-ethyl-1,2,5,6-tetrahydropyridin-3-yl)-1H-indole] | – | 40.2 nM | 96.6% | – | 62.9% | – | – | – | – | Ki (5HT2A receptor [1]; [15]): 42.6 nM; EC50 (5HT2A receptor [3]; [16]): 74.9 nM
Clc1cccc2c(C3CNC3)c[nH]c12 [Example 255, 3-(azetidin-3-yl)-7-chloro-1H-indole] | – | – | – | – | – | 159 nM | – | 302 nM | – | EC50 (5HT2A receptor [2]; [10]): 68.2 nM; Emax (5HT2A receptor [2]; read-out: 5HTA Gq Emax (%), BRET2 Gαq dissociation, HEK293T, normalized to 5-HT): 81.1%; Emax (5HT2A receptor [3]; read-out: 5HT2A β-Arr Emax (%), BRET1 beta-arrestin2 recruitment, HEK293T, normalized to 5-HT): 42.3%
Clc1cccc2c(C34CNCC3C4)n[nH]c12 (single isomer, unassigned) [Example 274, 3-(3-azabicyclo[3.1.0]hexan-1-yl)-7-chloro-1H-indazole] | – | – | – | – | – | 1580 nM | – | 733 nM | – | 5HTA Gq Emax (%) (5HT2A receptor [2]; [19]): 117.2%; EC50 (5HT2A receptor [2]; [17]): 61.5 nM; 5HT2A β-Arr Emax (%) (5HT2A receptor [3]; [20]): 50.96%
C1=C(c2n[nH]c3ccccc23)CNCC1 [Example 45, 3-(1,2,5,6-tetrahydropyridin-3-yl)-1H-indazole] | 113 nM | – | 98.3% | 138 nM | 68.1% | – | – | – | – | –
Cc1cccc2[nH]nc(C3=CCCN(C)C3)c12 [Example 97, 4-methyl-3-(1-methyl-1,2,5,6-tetrahydropyridin-3-yl)-1H-indazole] | 786 nM | 80.4 nM | 69% | 605 nM | 64.6% | – | – | – | – | –
